Test results from US20190105337A1, “METHODS OF TREATING BACTERIAL INFECTIONS” (priority 2015, published 2019).
≈ marks a conversion by molar mass, not a printed value. Read-outs that look alike come from different tables or passages of the source.

Columns and labels:
clinical [1] = details: both, human, in vivo
Protocol: A total of twenty-five (n=25) male and female subjects who met the study entry criteria and completed all phases of the pharmacokinetic study were included in this pharmacokinetic analysis. […] Blood samples were collected to measure drug concentrations in plasma prior to (time 0), and at 1.5, 2.95, 3.083, 3.25, 3.5, 4, 6, and 8 hours after the start of a 3-hour intravenous infusion of the third combination dose.
Urea has been commonly used as an endogenous marker to estimate the apparent volume of ELF. Blood samples to determine plasma urea concentrations were obtained just prior to scheduled bronchoscopy. Aliquots of BAL were obtained to determine urea concentrations in BAL and cell count with differential. The standardized bronchoscopy with BAL procedure for the collection of intrapulmonary samples has been previously described in the references listed below.
(Reports MC14B-0013, MC14B-0015, MC14I-011, and MC14I-0012). The urea concentrations in plasma and BAL were performed with a microplate-based method with an 0-phthalaldehyde chromogenic solution at MicroConstants, Inc., San Diego, Calif.
The calculations of ELF volume and drug concentrations in ELF and AM were performed with BAL supernatant and pulmonary (alveolar) cells (“cell pellet”) from aspirates recovered from the 2nd, 3rd, and 4th instillations (BAL2). The concentration of drug (ABXELF) in the epithelial lining fluid (ELF) was determined as follows:
[…]
VELF is derived from the following:
where UreaBAL is the concentration of urea in BAL fluid and UreaP is the concentration of urea in plasma.
The concentration of drug (ABXAM) in the alveolar cells (AC) was determined as follows:
Differential cell count was performed to determine the number of macrophages present. A mean macrophage cell volume of 2.42 μl/106 cells was used in the calculations for volume of alveolar cells in the pellet suspension.
The concentration ratios of ELF and AM to the simultaneous plasma concentrations were calculated for each subject and summarized for each group at each sampling time. […] The 8-hour sampling time was also used as a value at time zero for determining the area term of plasma, ELF, and AM. The AUC0-8 for each matrix was determined with the linear trapezoidal method. The ratio of AUC0-8 of ELF to plasma and AM to plasma were calculated.

P. aeruginosa strains [2] = experiment: MIC by broth microdilution (CLSI), P. aeruginosa strains; assay type: cell-based; details: Pseudomonas aeruginosa
[3] = Example 2: treatment emergent adverse events, single dose phase; assay type: in vivo, human; details: Pooled Meropenem alone
Protocol: The combination of both drugs was administered on day 7. All drugs were infused over 3 hours. Plasma and urine samples were obtained and assayed using validated HPLC/MS methods.
No subjects discontinued due to AEs and no SAEs were observed.

clinical [4] = details: human, in vivo
P. aeruginosa strains [5] = assay type: cell-based, Pseudomonas aeruginosa
Protocol: The pharmacokinetics simulation was based on data from the clinical study disclosed in Example 2.
In Vitro PK-PD Model: Six medium sized hollow-fiber cartridges (FiberCell Systems) were used per experiment. Three strains studied in duplicate were used for each experiment. Log-phase cells were inoculated and incubated for 2 hours prior to the start of treatment to achieve about 10^8 CFU/mL. Target PK parameters are listed in Tables E and F. The exposures were based on the published literatures disclosed in Example 2. Samples were collected from the central compartment for the determination of drug concentrations over a 32 hour period and were analyzed using an LC-MS/MS method.

[6] = cited from earlier work
[7] = Ratio of ELF to total Plasma concentration

Structure (SMILES): C[C@@H](O)[C@H]1C(=O)N2C(C(=O)O)=C(S[C@@H]3CN[C@H](C(=O)N(C)C)C3)[C@H](C)[C@H]12 [meropenem, Meropenem]
- AUC(0-t) (clinical [1]; AUC0-8 based on mean ELF concentrations): 112 µg·h/mL
- AUC(0-t) (clinical [1]; AUC0-8 based on median ELF concentrations): 102 µg·h/mL
- concentration at 1.5 h (clinical [1]; Concentration in ELF): 21400 ± 4000 ng/mL
- concentration at 3.25 h (clinical [1]; Concentration in ELF): 28300 ± 6700 ng/mL
- concentration at 4 h (clinical [1]; Concentration in ELF): 16100 ± 4800 ng/mL
- concentration at 6 h (clinical [1]; Concentration in ELF): 7520 ± 5290 ng/mL
- concentration at 8 h (clinical [1]; Concentration in ELF): 2510 ± 1130 ng/mL
- concentration at 1.5 h (clinical [1]; Concentration in Plasma): 41200 ± 5000 ng/mL
- concentration at 3.25 h (clinical [1]; Concentration in Plasma): 47700 ± 7300 ng/mL
- concentration at 4 h (clinical [1]; Concentration in Plasma): 23800 ± 4300 ng/mL
- concentration at 6 h (clinical [1]; Concentration in Plasma): 7240 ± 2790 ng/mL
- concentration at 8 h (clinical [1]; Concentration in Plasma): 1360 ± 510 ng/mL
- Kp at 1.5 h (clinical [1]; [7]): 0.525 ± 0.107
- Kp at 3.25 h (clinical [1]; [7]): 0.59 ± 0.079
- Kp at 4 h (clinical [1]; [7]): 0.705 ± 0.302
- Kp at 6 h (clinical [1]; [7]): 1.04 ± 0.475
- Kp at 8 h (clinical [1]; [7]): 2.13 ± 1.37
- Kp (clinical [1]; intrapulmonary penetration based on AUC0-8 of ELF and total plasma concentrations): ~0.63
- Kp (clinical [1]; intrapulmonary penetration, unbound plasma concentrations): 0.65
- Kp (clinical [1]; mean ratios of ELF to simultaneous plasma concentrations (range)): 0.525 to 2.13
- Kp (clinical [1]; ratio of ELF to total plasma concentrations based on mean AUC0-8): 0.63
- Kp (clinical [1]; ratio of ELF to total plasma concentrations based on median AUC0-8): 0.58
- Kp (clinical [1]; ratio of ELF to unbound plasma concentrations based on mean AUC0-8): 0.65
- Kp (clinical [1]; ratio of ELF to unbound plasma concentrations based on median AUC0-8): 0.59
- MIC (P. aeruginosa strains [2]; P. aeruginosa PAM3210, read-out: MIC): 2 µg/mL (≈ 5.22 µM)
- MIC (P. aeruginosa strains [2]; P. aeruginosa PAM3353, read-out: MIC): 8 µg/mL (≈ 20.9 µM)
- MIC (P. aeruginosa strains [2]; P. aeruginosa PAM3377, read-out: MIC): 4 to 8 µg/mL (≈ 10.4 to 20.9 µM)
- MIC (P. aeruginosa strains [2]; read-out: Meropenem (w/ 8 mg/L Compound I) MIC, P. aeruginosa PAM3210, w/ 8 mg/L Compound I): 2 µg/mL (≈ 5.22 µM)
- MIC (P. aeruginosa strains [2]; read-out: Meropenem (w/ 8 mg/L Compound I) MIC, P. aeruginosa PAM3353, w/ 8 mg/L Compound I): 8 µg/mL (≈ 20.9 µM)
- MIC (P. aeruginosa strains [2]; read-out: Meropenem (w/ 8 mg/L Compound I) MIC, P. aeruginosa PAM3377, w/ 8 mg/L Compound I): 4 to 8 µg/mL (≈ 10.4 to 20.9 µM)
- MIC (P. aeruginosa strains [2]; read-out: Meropenem MIC, P. aeruginosa PAM3210): 2 µg/mL (≈ 5.22 µM)
- MIC (P. aeruginosa strains [2]; read-out: Meropenem MIC, P. aeruginosa PAM3353): 8 µg/mL (≈ 20.9 µM)
- MIC (P. aeruginosa strains [2]; read-out: Meropenem MIC, P. aeruginosa PAM3377): 4 to 8 µg/mL (≈ 10.4 to 20.9 µM)
- Headache, % [3]: 37%
- Infusion site pain, % [3]: 10%
- PK catheter site hematoma, % [3]: 21%
- PK catheter site pain, % [3]: 10%
- Subjects with TEAEs, % [3]: 95%
- AUC (clinical [4]; Meropenem exposure (AUC)): 211 µg·h/mL
- clearance (clinical [4]; weight adjusted clearance (Cl)): 2.33 mL/min/kg
- efficacy, number of strains (P. aeruginosa strains [5]): effective against 2 out of 3 strains
- Change in Log CFU over 32 hours (P. aeruginosa strains [5]; P. aeruginosa PAM3377, human equivalent 2 g q8h by 3 hour infusion): 3.7 Log CFU
- mean meropenem ELF concentration ([6]; 500 mg dose, 1 hour): 5.3 µg/mL
- mean meropenem ELF concentration ([6]; 500 mg dose, 2 hours): 2.7 µg/mL
- mean meropenem ELF concentration ([6]; 500 mg dose, 3 hours): 1.9 µg/mL
- mean meropenem ELF concentration ([6]; 500 mg dose, 5 hours): 0.7 µg/mL
- mean meropenem ELF concentration ([6]; 500 mg dose, 8 hours): 0.2 µg/mL
- intrapulmonary penetration based on AUC0-8 of ELF and total plasma ([6]; 500 mg dose): approximately 43%
- mean meropenem ELF concentration ([6]; 1 gram dose, 1 hour): 7.7 µg/mL
- mean meropenem ELF concentration ([6]; 1 gram dose, 2 hours): 4.0 µg/mL
- mean meropenem ELF concentration ([6]; 1 gram dose, 3 hours): 1.7 µg/mL
- mean meropenem ELF concentration ([6]; 1 gram dose, 5 hours): 0.8 µg/mL
- mean meropenem ELF concentration ([6]; 1 gram dose, 8 hours): 0.03 µg/mL
- intrapulmonary penetration based on AUC0-8 of ELF and total plasma ([6]; 1 gram dose): ~28%
- mean meropenem ELF concentration ([6]; 2 gram dose, 1-hour sampling time): 2.9 µg/mL
- mean meropenem ELF concentration ([6]; 2 gram dose, 3-hour sampling time): 2.8 µg/mL
